From US20250354188A1, “METHOD FOR SYNTHESIZING CELOSIANIN II, METHOD FOR SYNTHESIZING BETAXANTHIN, AMYLOID-ß POLYMERIZATION INHIBITOR OR THERAPEUTIC OR PROPHYLACTIC AGENT FOR ALZHEIMER'S DISEASE, AMYLOID PEPTIDE AGGREGATION INHIBITOR, AND HIV-1 PROTEASE ACTIVITY INHIBITOR” (priority 2019, published 2025)

Tests used:
[1] = Stability of betalain pigment aqueous solutions at 37° C.; type: physicochemical; conditions: for red color after treatment: 4 days at 37° C.
Method: An aqueous solution of each of celosianin II, amaranthin, and betanin was evaluated for its stability at 37° C.
For each of betanin, amaranthin, and celosianin II, a 1 mM aqueous solution was prepared, and left to stand still in an incubator at 37° C. Absorbances at 536 nm on days 0, 1, 2, 3, and 4 were measured, and for the resultant values, relative amounts with respect to the absorbance on day 0 were calculated.

[2] = test system: Transgenic nematodes (CL2006) expressing human amyloid-β 1-42, Aβ42; test: Paralysis test using transgenic nematodes expressing amyloid peptide; type: in vivo, Caenorhabditis elegans; conditions: fed with 50 μM betanin, compared to group fed with dextrin (control)
Method: In a transgenic nematode expressing an amyloid peptide, aggregates of the amyloid peptide are formed in the body along with its growth period, and the nematode is paralyzed. In view of this, whether feeding with betanin changed a paralysis ratio was evaluated.
Nematodes were grown using NGM plates (nematode growth medium), and grown using Escherichia coli (OP50 strain) as food under the condition of 15° C. unless otherwise indicated.
Transgenic nematodes (CL2006) expressing an amyloid peptide (human amyloid-β 1-42, Aβ42) were obtained from the Caenorhabditis Genetics Center (CGC), USA. The CL2006 expresses Aβ42 in the cells of the body wall muscle of the nematode, and then aggregation of the amyloid peptide occurs in the muscle. […]
The individuals grown to adults through the synchronized growth were transferred to NGM plates containing various concentrations (2 μM, 10 μM, and 50 μM) of food having mixed therein dextrin or betanin, and were grown. After the nematodes had been transferred, the nematodes were each evaluated for paralysis at constant intervals. […]
Paralysis was evaluated on the basis of the behavior of the nematode after the nose of the nematode had been lightly tapped with a platinum wire.

[3] = target: T1, human amyloid-β 1-40, Aβ40 (Homo sapiens, UniProt P05067); test: Observation of amyloid peptide aggregation using transmission electron microscope; type: biochemical; conditions: 25 μM Aβ40 + 50 μM sample, 5 days; for effect on polymerization and amorphous aggregation of amyloid fibrils (conclusion from TEM): 37° C.; for aggregation of the amyloid peptide observed by TEM: PBS pH 7.4, 37° C., dark
T1 construct: A lyophilized amyloid peptide (human amyloid-β 1-40, Aβ40) was purchased from Peptide Institute, Inc; purchased Peptide Institute, Inc
T1 sequence (P05067 672-711 limits assumed): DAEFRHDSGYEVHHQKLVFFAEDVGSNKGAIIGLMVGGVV
Method: A lyophilized amyloid peptide (human amyloid-β 1-40, Aβ40) was purchased from Peptide Institute, Inc., dissolved as a stock solution at a concentration of 1 mM using dimethyl sulfoxide, and stored at-20° C. until use.
As a betaxanthin, the betaxanthin extracted from the betaxanthin-producing BY2 cells (FIG. 10) was used.
With regard to reaction conditions, Aβ40 and a sample (betanin, amaranthin, celosianin II, ferulic acid, or the betaxanthin) were prepared with PBS (pH 7.4) so as to have a final concentration of 25 μM and a final concentration of 50 μM, respectively. As a control, distilled water was used in place of the sample. The prepared sample was left to stand still in a dark place at 37° C. for 5 days.
The sample after the reaction was stained on a grid mesh for a transmission electron microscope by adding about 2 μL of a 2% uranyl acetate solution thereto. After the solution had dried, the aggregation of the amyloid peptide was observed using a transmission electron microscope (Hitachi 7650 TEM).

[4] = target: T2, β-Amyloid (1-40) (Homo sapiens, UniProt P05067); test: Amyloid-β polymerization inhibitory activity in Thioflavin T (ThT) assay; type: biochemical; conditions: sample 50 μM final; ThT fluorescence for 4 hours
T2 construct: SensoLyte Thioflavin T β-Amyloid (1-40) Aggregation Kit (ANASPEC); purchased ANASPEC
T2 sequence (P05067 672-711 limits assumed): as above
Method: ThT assay involved evaluating polymerization using SensoLyte Thioflavin T β-Amyloid (1-40) Aggregation Kit (ANASPEC) in accordance with an accompanying protocol.
As an apparatus used for measurement, Varioskan LUX (Thermo Fisher Scientific) was used, and fluorescence derived from the polymerization of amyloid-β was measured for 4 hours at intervals of 5 minutes. A sample was stirred for 15 seconds before each measurement and subjected to the measurement. An excitation wavelength of 440 nm and a detection wavelength of 484 nm were used.
The sample used for the ThT assay was prepared to have a final concentration of 50 μM before being used for the experiment. Tannic acid (Ono, K., Hasegawa, K., Naiki, H. & Yamada, M. (2004) Anti-amyloidogenic activity of tannic acid and its activity to destabilize Alzheimer's beta-amyloid fibrils in vitro. Biochim Biophys Acta 1690, 193-202.) was used as a control of an inhibitor.
The sample used for the ThT assay was prepared to have a final concentration of 50 μM before being used for the experiment. An extracted sample from the BY-2 cells having an empty vector introduced therein (VC) and water (PC) in place of a sample were used as controls. In addition, betanin and curcumin were used as positive controls. Curcumin is a plant-derived substance reported to have amyloid-β polymerization inhibitory activity (Yang F, Lim GP, Begum AN, et al. Curcumin inhibits formation of amyloid betaoligomers and fibrils, binds plaques, and reduces amyloid in vivo. J BiolChem. 2005; 280(7): 5892-5901. doi:10.1074/jbc.M404751200).

[5] = target: T3, recombinant HIV-1 protease (Human immunodeficiency virus type 1 group M subtype B, UniProt P04585); test: HIV-1 protease inhibitory activity (residual substrate peptide by HPLC); type: biochemical
T3 construct: A recombinant HIV-1 protease (ab84117) from Abcam was used as an HIV-1 protease; purchased Abcam ab84117
Method: A recombinant HIV-1 protease (ab84117) from Abcam was used as an HIV-1 protease, and an HIV-1 protease substrate (Lys-Ala-Arg-Val-Nle-p-nitro-Phe-Glu-Ala-Nle amide) from Sigma-Aldrich was used as a substrate peptide for the HIV-1 protease. HIV-1 protease activity evaluation was performed with reference to a previously reported method (Boso, G., Orvell, C. and Somia, N.V. (2015) The nature of the N-terminal amino acid residue of HIV-1 RNase H is critical for the stability of reverse transcriptase in viral particles. J. Virol. 89, 1286-1297.). Amaranthin, betanin, or celosianin II was added to 16 pmol of the HIV-1 protease and 4 nmol of the HIV-1 protease substrate, a buffer (25 mM NaCl, 25 mM Na2HPO4, 1 mM dithiothreitol, pH 4.7) was added so that the amount of a reaction liquid was 30 μl, and a reaction was performed at 25° C. for 2 hours. With regard to the addition amount of amaranthin, betanin, or celosianin II, amaranthin, betanin, and celosianin II were each added at the ratio of a 100-fold amount with respect to the amount of the HIV-1 protease. For celosianin II, the ratios of 25-and 50-fold amounts were further evaluated. An HIV-1 inhibitor saquinavir was used as a positive control.
After the reaction, the reaction liquid was measured for the amount of the residual substrate peptide through use of HPLC, and a residual ratio with respect to the substrate before the reaction was calculated. For the HPLC, LC-20AD from Shimadzu was utilized, and a Shim-pack GWS C18 column (5 μm; 200 mm×4.6 mm i.d.; Shimadzu GLC) was used as an analytical column. For an analytical solvent system, 0.05% TFA in water was used as solvent A and 0.05% TFA in acetonitrile was used as solvent B. An HPLC program was set to a linear gradient from 0% of solvent B at 0 minutes to 50% of solvent B at 50 minutes, and the HPLC was performed at a flow rate of 0.5 mL/min and 25° C. Analysis was performed with an analytical wavelength being set to 260 nm allowing the HIV-1 protease substrate peptide to be detected.

SMILES | red color after treatment ([1]; 1 mM aqueous solution) | paralysis ratio [2] | effect on polymerization and amorphous aggregation of amyloid fibrils (conclusion from TEM) [3] | aggregation of the amyloid peptide observed by TEM [3] | amyloid-β polymerization inhibitory activity [4] | residual amounts of the betalain pigments (absorbance at 536 nm relative to day 0) ([1]; 1 mM aqueous solution, 37° C., days 0 to 4) | stability of aqueous solution ([1]; 37° C., compared to amaranthin and betanin) | dependence of HIV-1 protease inhibitory activity on amount ([5]; 25-, 50- and 100-fold amounts with respect to HIV-1 protease) | HIV-1 protease activity inhibitory effect relative to amaranthin ([5]; 25-fold celosianin II vs 100-fold amaranthin) [times] | HIV-1 protease inhibitory activity ([5]; celosianin II added in 25-fold amount with respect to HIV-1 protease, 25° C., 2 hours, pH 4.7)
O=C(O)C1=C/C(=C/C=[N+]2/c3cc(O)c(OC4OC(CO)[C@@H](O)C(O)C4O)cc3CC2C(=O)[O-])CC(C(=O)O)N1 (stereo in doubt) [betanin] | disappeared | significant amelioration (reduction) in paralysis ratio | inhibiting both of the polymerization and amorphous aggregation of amyloid fibrils | only short amyloid fibrils were observed | comparable to or higher than that of the existing inhibitor (tannic acid) | – | – | – | – | –
O=C(O)C1=C/C(=C/C=[N+]2c3cc(O)c(O[C@@H]4O[C@H](CO)[C@@H](O)[C@H](O)[C@H]4O[C@@H]4O[C@H](C(=O)O)[C@@H](O)[C@H](O)[C@H]4O)cc3C[C@H]2C(=O)[O-])C[C@@H](C(=O)O)N1 [amaranthin] | disappeared | – | inhibiting both of the polymerization and amorphous aggregation of amyloid fibrils | only short amyloid fibrils were observed | possessed inhibitory activity, though its effect was low as compared to celosianin II and betanin | – | – | – | – | –
COc1cc(/C=C/C(=O)O[C@H]2[C@H](O[C@H]3[C@H](Oc4cc5c(cc4O)[N+](=C/C=C4/C=C(C(=O)O)N[C@H](C(=O)O)C4)[C@H](C(=O)[O-])C5)O[C@H](CO)[C@@H](O)[C@@H]3O)O[C@H](C(=O)O)[C@@H](O)[C@@H]2O)ccc1O [celosianin II] | still exhibited a red color | – | inhibiting both of the polymerization and amorphous aggregation of amyloid fibrils | only short amyloid fibrils were observed | comparable to or higher than that of the existing inhibitor (tannic acid) | more abundant than amaranthin and betanin | stable | amount-dependent | 4 | comparable to that in the case where a 100-fold amount of amaranthin was added
COc1cc(/C=C/C(=O)O)ccc1O [ferulic acid] | – | – | inhibiting both of the polymerization and amorphous aggregation of amyloid fibrils | only short amyloid fibrils were observed | weaker than those of celosianin II, the betanin pigment, and amaranthin | – | – | – | – | –
